Patent US20130330756A1, “DETECTION OF BACTERIA EXHIBITING ENZYMATIC RESISTANCE TO CARBAPENEMS” (BIOMERIEUX, priority 2011, published 2013)
Like-named read-outs stand apart in the source and are kept apart here. Peptide text beside a SMILES is read from it. * marks the point of attachment. βNA = c1ccc2cc(N*)ccc2c1

Assays:
19 IR strains = test: Agar dilution growth on chromogenic media with faropenem, IR strains; assay type: cell-based; conditions: for additional IR strains inhibited: faropenem 16 mg/L
Protocol: (§1) Seventy-seven strains of Gram-negative bacteria, of which 71 are enterobacteria and 6 non-enterobacteria (non-fermenting bacteria), whose resistance characteristics are set out in Table IV, were tested on media containing different concentrations of faropenem and cloxacillin, with or without PAbetaN, in order to establish the sensitivity and the specificity of each formulation. The tested media are described in Table V.
(§2) The chromogenic media are divided into 120×120 square dishes.
(§3) The seeding is performed from 24-h pre-cultures at 37° C. on trypcase soy agar. For each strain, a 0.5 McF suspension in physiological water is produced. Each suspension is spot-seeded (1 to 2 μL) on each medium with the aid of a multi-point inoculator according to the Agar Dilution (AD) method. Readings are performed after 24 hours of incubation at 37° C.
(§4) An absence of bacterial growth or a number of colonies which is less than or equal to 3 are considered as corresponding to a growth inhibition. The presence of 4 colonies or more is considered to be positive growth.

[1] = system: carbapenemase-producing strains; assay type: cell-based
Protocol: (§5) The effect of cloxacillin and PAbetaN on the MICs of the strains with ertapenem was evaluated firstly using E-test® strips in Mueller Hinton medium. […] The second test consisted in evaluating the impact of these 2 compounds on the MICs with ertapenem of 29 carbapenemases-producing strains (+1 ESBL).
(§6) Test B101001: twenty-nine carbapenemase-producing strains divided as follows: 27 Klebsiella pneumoniae strains producing class A KPC carbapenemase (KPC), and 2 strains respectively of Klebsiella pneumoniae and Citrobacter freundii which produce class-B carbapenemase (NDM-1). This test also comprised an ESBL Escherichia coli strain.
(§7) The E-tests were performed in Mueller-Hinton medium supplemented or not supplemented with cloxacillin and/or PAbetaN according to Table I:
(§8) 2. Test • Production for each strain of an approximately 0.5 McF suspension in a 0.85% NaCl ampule. • Seeding of the 4 media by semi-automatic swabbing. • Drying of the dishes at ambient temperature for 5 to 15 min. • Application of the ertapenem E-test® strip. • Incubation for 16 to 20 hours at 37° C.

Citrobacter IR strain = test: Ertapenem E-test MIC, IR Citrobacter strain; assay type: cell-based, Citrobacter freundii; conditions: cloxacillin 200 mg/l and/or PAbetaN 25 mg/l, vs medium without either
Protocol: as §5
(§9) Test B100904: the 19 impermeability-resistant (IR) strains belong to the following species: 10 Enterobacter aerogenes, 2 Enterobacter cloacae, 1 Citrobacter freundii, 1 Pseudomonas aeruginosa, 3 Proteus mirabilis and 2 Morganella morganii.
as §7, §8

[2] = system: carbapenemase-producing strains; test: Agar dilution growth on chromogenic media with faropenem, carbapenemase-producing strains; assay type: cell-based
Protocol: as §1, §2, §3, §4

[3] = system: class-B carbapenemase (NDM-1) producing strains; test: Ertapenem E-test MIC, NDM-1 strains; assay type: cell-based, Klebsiella pneumoniae, Citrobacter freundii; conditions: cloxacillin 200 mg/l and/or PAbetaN 25 mg/l, vs medium without either
Protocol: as §5, §6, §7, §8

[4] = system: 19 impermeability-resistant (IR) strains; test: Ertapenem E-test MIC, all 19 IR strains (TOTAL); assay type: cell-based; conditions: for number of strains: >2 MIC steps impact on ertapenem MIC / number of strains: No impact on ertapenem MIC / number of strains: ≦2 MIC steps impact on ertapenem MIC: TOTAL of 19 IR strains, cloxacillin 200 mg/l and/or PAbetaN 25 mg/l, vs medium without either
Protocol: as §5, §9, §7, §8

[5] = system: ESBL Escherichia coli strain; test: Ertapenem E-test MIC, ESBL strain; assay type: cell-based; conditions: cloxacillin 200 mg/l and/or PAbetaN 25 mg/l, vs medium without either
Protocol: as §5, §6, §7, §8

Proteus IR strains = test: Ertapenem E-test MIC, IR Proteus strains; assay type: cell-based, Proteus mirabilis; conditions: cloxacillin 200 mg/l and/or PAbetaN 25 mg/l, vs medium without either
Protocol: as §5, §9, §7, §8

[6] = system: class A KPC carbapenemase producing strains; test: Ertapenem E-test MIC, KPC strains; assay type: cell-based, Klebsiella pneumoniae
Protocol: as §5, §6, §7, §8

Pseudomonas IR strain = test: Ertapenem E-test MIC, IR Pseudomonas strain; assay type: cell-based, Pseudomonas aeruginosa
Protocol: as §5, §9, §7, §8

Morganella IR strains = test: Ertapenem E-test MIC, IR Morganella strains; assay type: cell-based, Morganella morganii; conditions: cloxacillin 200 mg/l and/or PAbetaN 25 mg/l, vs medium without either
Protocol: as §5, §9, §7, §8

Enterobacter IR strains = test: Ertapenem E-test MIC, impermeability-resistant (IR) Enterobacter strains; assay type: cell-based, Enterobacter aerogenes, Enterobacter cloacae; conditions: for number of strains: >2 MIC steps impact on ertapenem MIC / number of strains: No impact on ertapenem MIC: Enterobacter IR strains, Mueller Hinton, cloxacillin 200 mg/l and/or PAbetaN 25 mg/l, vs medium without either; for MIC with ertapenem: E. aerogenes strain 9306074
Protocol: as §5, §9, §7, §8

[7] = TOTAL (ESBL+NDM+KPC), cloxacillin 200 mg/l and/or PAbetaN 25 mg/l, vs medium without either
[8] = Pseudomonas IR strain, cloxacillin 200 mg/l and/or PAbetaN 25 mg/l, vs medium without either
[9] = PAbetaN alone in Mueller Hinton
[10] = PAbetaN added to cloxacillin, against MICs with cloxacillin, 17 strains already decreased >2 steps by cloxacillin
[11] = KPC strains, cloxacillin 200 mg/l and/or PAbetaN 25 mg/l, vs medium without either

With `C[C@@H](O)[C@H]1C(=O)N2C(C(=O)O)=C([C@H]3CCCO3)S[C@H]12` [Faropenem, faropenem] the “impact on growth of IR strains” value (19 IR strains; faropenem alone, up to 16 mg/L) was “little impact”.

`Cc1onc(-c2ccccc2Cl)c1C(=O)N[C@@H]1C(=O)N2[C@@H]1SC(C)(C)[C@@H]2C(=O)O` [CLX, cloxacillin] was tested, and the “number of strains: >2 MIC steps, positive MIC effect” value [1, 7] was 2, the “number of strains: No impact on ertapenem MIC” value (“number of strains: No impact” below) [1, 7] was 10 and the “number of strains: ≦2 MIC steps, negative MIC effect” value [1, 7] was 16. For the same molecule, the “number of strains: >2 MIC steps, negative MIC effect” value ([1]; TOTAL (ESBL+NDM+KPC), cloxacillin 200 mg/l, vs medium without) was 1, the “number of carbapenemase-producing strains (NDM or KPC) with no impact on MIC with ertapenem” value ([1]; cloxacillin) was 9 and the “number of carbapenemase-producing strains with MIC slightly reduced” value ([1]; cloxacillin) was 16. For the same molecule, the “number of strains: >2 MIC steps impact on ertapenem MIC” value (from here on “number of strains: >2 MIC steps impact”) (Citrobacter IR strain) was 1, the “impact on growth of carbapenemase-producing strains” value ([2]; cloxacillin alone, at the 3 concentrations of faropenem tested) was “little or no impact” and the “number of strains: No impact” value [3] was 2. For the same molecule, the “additional IR strains inhibited” value (19 IR strains; addition of 50 mg/L cloxacillin) was 6, the “additional IR strains inhibited” value (19 IR strains; addition of 200 mg/L cloxacillin) was 9 and the “number of strains: >2 MIC steps impact” value [4] was 17. The “number of strains: No impact” value [4] was 1, the “number of strains: ≦2 MIC steps impact on ertapenem MIC” value (“number of strains: ≦2 MIC steps impact” for short) [4] was 1 and the “IR strains whose MICs with ertapenem are reduced by more than 2 concentration steps” value ([4]; cloxacillin added to Mueller Hinton medium) was 16/19. For the same molecule, the “number of strains: No impact” value [5] was 1, the “number of strains: >2 MIC steps impact” value (Proteus IR strains) was 3 and the “number of strains: >2 MIC steps, positive MIC effect” value [6] was 2. For the same molecule, the “number of strains: No impact” value [6] was 7, the “number of strains: ≦2 MIC steps, negative MIC effect” value [6] was 16 and the “number of strains: >2 MIC steps, negative MIC effect” value ([6]; 200 ug/mL) was 1. For the same molecule, the “number of strains: ≦2 MIC steps impact” value (Pseudomonas IR strain; [8]) was 1, the “number of strains: >2 MIC steps impact” value (Morganella IR strains) was 2 and the MIC with ertapenem in medium with the named additive (Enterobacter IR strains; E. cloacae IR strain unimpacted by cloxacillin alone) was over 32 µg/mL. The “number of strains: >2 MIC steps impact” value (Enterobacter IR strains) was 11 and the “number of strains: No impact” value (Enterobacter IR strains) was 1.

`NC(N)=NCCC[C@H](NC(=O)[C@@H](N)Cc1ccccc1)C(=O)Nc1ccc2ccccc2c1` [PAbetaN, phenylalanine-arginine-beta-naphthylamide] (H-Phe-Arg-βNA) was tested, and the “number of strains with MIC with ertapenem slightly increased” value [1, 9] was 15, the “number of strains with MIC with ertapenem very distinctly increased” value [1, 9] was 7 and the “number of strains: >2 MIC steps, positive MIC effect” value [1, 7] was 7. The “number of strains: No impact” value [1, 7] was 5, the “number of strains: ≦2 MIC steps, negative MIC effect” value [1, 7] was 2 and the “number of strains: ≦2 MIC steps, positive MIC effect” value [1, 7] was 15. For the same molecule, the “number of strains: No impact” value (Citrobacter IR strain) was 1, the “detection sensitivity with vs without PAbetaN” value ([2]; 200 mg/L cloxacillin and 8 or 16 mg/L faropenem) was “does not change” and the “detection sensitivity with vs without PAbetaN” value ([2]; 8 or 16 mg/L faropenem with 50 or 100 mg/L cloxacillin) was “greater”. For the same molecule, the “number of strains: No impact” value [3] was 2, the “number of IR strains unimpacted” value [4, 10] was 1 and the “number of IR strains with MICs decreased by two additional MIC steps” value [4, 10] was 7. For the same molecule, the “number of IR strains with less significantly decreased MICs (≦2 MIC steps)” value [4, 10] was 5, the “impact of PAbetaN alone on ertapenem MICs of the majority of the IR strains” value ([4]; PAbetaN alone) was “no impact” and the “number of strains: >2 MIC steps impact” value [4] was 2. For the same molecule, the “number of strains: No impact” value [4] was 17, the “number of strains: ≦2 MIC steps impact” value [4] was 0 and the “number of strains: ≦2 MIC steps, positive MIC effect” value [5] was 1. For the same molecule, the “number of strains: No impact” value (Proteus IR strains) was 3, the “number of strains: >2 MIC steps, positive MIC effect” value [6, 11] was 7 and the “number of strains: No impact” value [6, 11] was 3. The “number of strains: ≦2 MIC steps, negative MIC effect” value [6, 11] was 2, the “number of strains: ≦2 MIC steps, positive MIC effect” value [6, 11] was 14 and the “effect on ertapenem MIC of adding PAbetaN in addition to cloxacillin” value (Pseudomonas IR strain; P. aeruginosa IR strain) was “not affected”. For the same molecule, the “number of strains: No impact” value (Pseudomonas IR strain; [8]) was 1, the “number of strains: No impact” value (Morganella IR strains) was 2 and the MIC with ertapenem (Enterobacter IR strains; in the presence of PAbetaN alone) was over 32 µg/mL. For the same molecule, the “number of strains: >2 MIC steps impact” value (Enterobacter IR strains) was 2 and the “number of strains: No impact” value (Enterobacter IR strains) was 10.

Molecule `C[C@@H](O)[C@H]1C(=O)N2C(C(=O)O)=C(S[C@@H]3CN[C@H](C(=O)Nc4cccc(C(=O)O)c4)C3)[C@H](C)[C@H]12` [ertapenem] has an MIC with ertapenem (Enterobacter IR strains; without PAbetaN) of 6 µg/mL.
